Measured values from patent publication US20040081655A1, “Methods and compositions comprising polycationic compounds” (priority 2001, published 2004).
Entries after “also recorded” stand apart in the source; their conditions may differ.

Legend:
human dendritic cells = experiment: LPS-induced production of pro-inflammatory cytokines by human dendritic cells in vitro (Example 10); settings: for LPS-induced production of pro-inflammatory cytokines by human dendritic cells: in vitro, mode of incubation not specified; for production of IL-6 by human dendritic cells / production of TNF-a by human dendritic cells: substance alone (LPS 5 ng/ml; pR60 10 μg/ml; KLK 16, 8 μg/ml; pK 10 μg/ml), culture medium 12 h then substance 12 h
Experimental: Human DC were generated from monocytes. Briefly, peripheral blood leukocytes (PBLs) were isolated from buffy coats of healthy volunteers by Ficoll gradient centrifugation. Monocytes were isolated from PBLs using CD14-coated magnetic beads (Miltenyi Biotec Inc., Germany) applied according to the manufacturer's instructions. Using this method, we obtained >95% CD14^+ cells as determined by flow cytometry. These CD14^+ monocytes were cultured in RPMI 1640 medium supplemented with 10% FCS (PAA Laboratories, Linz, Austria), non-essential aminoacids, L-glutamin, gentamicin, sodium pyruvate, 100 ng/ml human GM-CSF and 500 U/ml human IL-4 in 6-well tissue plates for 6-7 days. To this end, the cultures contained >80%. MHC class II^+/CD1a^+ cells (=DC).
Human dendritic cells (DC) were generated as described in example 6. For in vitro-stimulations, day 7-cultured dendritic cells were incubated for 12 h with the indicated compounds. After centrifugation, supernatant was removed, cells were washed once with medium, then fresh medium with the indicated compounds was added, and the cells were incubated for additional 12 h. Supernatants were harvested and analyzed for the production of TNF-a and IL-6 using specific ELISAs.

CD11c+ sorted BM-DC [1] = experiment: CpG-ODN-induced production of TNF-α and IL-6 by murine BM-DC in vitro, KLK (Example 7); assay type: cell-based, C57B1/6 mice; settings: 24 h; for production of IL-6 by murine BM-DC / production of TNF-a by murine BM-DC: substance alone (KLK 16, 8 μg/ml; CpG-ODN 1668 0.5 nmol/ml), supernatant ELISA
Experimental: (§1) Murine dendritic cells (DC) were generated from bone-marrow precursor cells of C57Bl/6 mice as previously described (Inaba 1992). Briefly, bone marrow cells were obtained by flushing the femurs and tibias with medium. Cells were depleted of lymphocytes, granulocytes and MHC class II^+cells by Ab-complement-mediated lysis. Dead cells were removed by Ficoll gradient (Ficoll Separating Solution, density […]; Biochrom KG, Germany). The remaining cells (1×10^6/ml) were cultured in 24-well culture plates in high glucose DMEM medium (PAA Laboratories GmbH, Linz, Austria; E 15-009) supplemented with 10% heat-inactivated FCS, 10. mM sodium pyruvate, 2 mM L-glutamine, […] gentamicin, 0.5 mM 2-mercaptoethanol (all supplements from PAA Laboratories GmbH, Linz, Austria), 20 ng/ml GM-CSF and 250 U/ml IL-4. On day 3 of culture, cells were fed with fresh medium. On day 6 of culture, non-adherent cells and loosely adherent aggregates were harvested, washed and re-plated in 6-well culture plates (2×10^6/5 ml). After additional 1 day of culture, non-adherent cells were collected for analyses. […] For in vitro-stimulations, day 7-cultured bone marrow cells were further enriched for CD11c^+ cells (=DC) using magnetic beads (Miltenyi, Bergisch-Gladbach, Germany). The purity of BM-DC was more than 95% as determined by flow cytometry analyses. […] Supernatants were harvested after 24 h and analysed for the production of TNF-α and IL-6 using specific ELISAs.
Murine dendritic cells (DC) were generated from bone-marrow precursor cells of C57B1/6 mice as described in example 5.

CD11c+ sorted BM-DC [2] = experiment: CpG-ODN-induced production of TNF-α and IL-6 by murine BM-DC in vitro, poly-L-arginine (Example 5); assay type: cell-based, C57Bl/6 mice; settings: 24 h; for production of IL-6 by murine BM-DC / production of TNF-α by murine BM-DC: substance alone (poly-L-arginine 10 μg/ml; CpG-ODN 1668 1 nmol/ml), supernatant ELISA
Experimental: as §1

TNF-a and IL-6 = experiment: BCG/CpG-ODN-induced systemic production of TNF-a and IL-6 in vivo, serum ELISA (Example 8); set-up: species or system Mice C57Bl/6
Experimental: (§2) Mice were injected subcutaneously into the flank with a total volume of 100 μl, containing the above mentioned compounds. One hour after injection blood was taken from the tail-vein and serum was prepared. The amount of the pro-inflammatory cytokines TNF-a and IL-6 in the sera was determined by cytokine-specific ELISAs according to the manufacturer's instructions (R&D Systems, Inc., Minneapolis, Minn.).

[3] = tested on: murine bone-marrow-derived dendritic cells; experiment: LPS-induced production of pro-inflammatory cytokines by murine bone-marrow-derived dendritic cells in vitro (Example 9); assay type: cell-based, C57Bl/6 mice
Experimental: Murine dendritic cells (DC) were generated from bone-marrow precursor cells of C57Bl/6 mice as previously described (Inaba 1992). Briefly, bone marrow cells were obtained by flushing the femurs and tibias with medium. Cells were depleted of lymphocytes, granulocytes and MHC class II^+cells by Ab-complement-mediated lysis. Dead cells were removed by Ficoll gradient (Ficoll Separating Solution, density […]; Biochrom KG, Germany). The remaining cells (1×10^6/ml) were cultured in 24-well culture plates in high glucose DMEM medium (PAA Laboratories GmbH, Linz, Austria; E 15-009) supplemented with 10% heat-inactivated FCS, 10. mM sodium pyruvate, 2 mM L-glutamine, […] gentamicin, 0.5 mM 2-mercaptoethanol (all supplements from PAA Laboratories GmbH, Linz, Austria), 20 ng/ml GM-CSF and 250 U/ml IL-4. On day 3 of culture, cells were fed with fresh medium. On day 6 of culture, non-adherent cells and loosely adherent aggregates were harvested, washed and re-plated in 6-well culture plates (2×10^6/5 ml). After additional 1 day of culture, non-adherent cells were collected for analyses. […] For in vitro-stimulations, day 7-cultured bone marrow cells were further enriched for CD11c^+ cells (=DC) using magnetic beads (Miltenyi, Bergisch-Gladbach, Germany). The purity of BM-DC was more than 95% as determined by flow cytometry analyses.
Murine dendritic cells (DC) were generated from bone-marrow precursor cells of C57Bl/6 mice as described in example 5.

[4] = tested on: human monocyte-derived DC; experiment: Poly I:C-induced production of pro-inflammatory cytokines by human DC in vitro (Example 6); assay type: cell-based; settings: for poly I:C-induced production of pro-inflammatory cytokines by human DC: poly I:C and pR60 together, in vitro; for production of IL-6 by human DC / production of TNF-α by human DC / production of IL-12/p70 by human DC: substance alone, 10 μg/ml, supernatant ELISA
Experimental: Human DC were generated from monocytes.
To determine, which cytokines are induced/produced by DC upon poly I:C and/or pR stimulation, DC were incubated with different stimuli for 12 and 24 hours, supernatants were harvested, stored at −20° C. and screened for the presence of respective cytokines by specific ELISAs.

TNF-α and IL-6 = experiment: CpG-ODN-induced systemic production of TNF-α and IL-6 in vivo, serum ELISA (Example 4); set-up: species or system Mice C57Bl/6; settings: for production of IL-6 in serum after injection / production of TNF-α in serum after injection: one hour after injection into hind footpads, ELISA
Experimental: as §2, with “injected” for “injected subcutaneously”, “each hind footpad” for “the flank”, “μl (50 μl per footpad),” for “μl,”, “TNF-α” for “TNF-a”

[5] = cells pre-incubated with polycationic compound 12 h, then LPS 12 h
[6] = mixture of LPS and polycationic compound, 12 h
[7] = mixture of CpG-ODN 1668 (0.5 nmol/ml) and KLK (16, 8 μg/ml)
[8] = one hour after s.c. injection into the flank, ELISA
[9] = mixture of CpG-ODN 1668 (1 nmol/ml) and poly-L-arginine (10 μg/ml)
[10] = cells pre-incubated with poly-L-arginine 12 h, then LPS 12 h
[11] = mixture of LPS/poly-L-arginine, 12 h
[12] = substance alone (LPS 10 ng/ml; pR60 10 μg/ml), culture medium 12 h then substance 12 h
[13] = mixture of pIC (10 μg/ml) and pR (10 μg/ml), 12 and 24 hours
[14] = poly-L-arginine co-injected with OVA257-264-peptide and CpG-ODN, serum one hour after injection
[15] = BCG vaccine and CpG-ODN co-injected with poly-L-arginine, serum one hour after injection

Row | Compound | LPS-induced production of IL-6 by human dendritic cells (human dendritic cells; [5]) | LPS-induced production of TNF-a by human dendritic cells (human dendritic cells; [5]) | LPS-induced production of pro-inflammatory cytokines by human dendritic cells (human dendritic cells) | LPS-induced production of IL-6 by human dendritic cells (human dendritic cells; [6]) | LPS-induced production of TNF-a by human dendritic cells (human dendritic cells; [6]) | production of IL-6 by human dendritic cells (human dendritic cells) | production of TNF-a by human dendritic cells (human dendritic cells) | production of IL-6 by murine BM-DC (CD11c+ sorted BM-DC [1]) | production of TNF-a by murine BM-DC (CD11c+ sorted BM-DC [1]) | production of IL-6 by human DC ([4]; 12 and 24 hours) | production of TNF-α by human DC ([4]; 12 and 24 hours) | production of IL-12/p70 by human DC [4] | also measured
1 | Poly-D-lysine Hydrobromide | inhibited | inhibited | decrease | inhibited | inhibited | could not detect any | could not detect any |  |  |  |  |  | 
2 | KLKLLLLLKLK [synthetic peptide containing at least 2 KLK-motifs separated by a linker of hydrophobic amino acids] | inhibited | inhibited | decrease | inhibited | inhibited | could not detect any | could not detect any | could not detect any | could not detect any |  |  |  | CpG-ODN 1668-induced production of IL-6 by murine BM-DC (CD11c+ sorted BM-DC [1]; [7]): inhibited; also recorded: abrogates; CpG-ODN 1668-induced production of TNF-a by murine BM-DC (CD11c+ sorted BM-DC [1]; [7]): inhibited; also recorded: abrogates
3 | tcc atg acg ttc ctg atg ct (TCCATGACGTTCCTGATGCT; chemistry not given here) [CpG-ODN 1668, phosphothioate-modified oligodinucleotides containing a CpG-motif, reference compound] |  |  |  |  |  |  |  | induces the production | induces the production |  |  |  | production of IL-6 by murine BM-DC (CD11c+ sorted BM-DC [2]; listed as CPG-ODN 1668): induces the production; production of TNF-α by murine BM-DC (CD11c+ sorted BM-DC [2]; listed as CPG-ODN 1668): induces the production; production of IL-6 by murine BM-DC (CD11c+ sorted BM-DC [2]; listed as CpG-ODN): significant amounts of both cytokines are produced; production of TNF-α by murine BM-DC (CD11c+ sorted BM-DC [2]; listed as CpG-ODN): significant amounts of both cytokines are produced; production of IL-6 in serum after injection (TNF-a and IL-6; [8]): induces the systemic production; production of TNF-a in serum after injection (TNF-a and IL-6; [8]): induces the systemic production
4 | Poly-L-Arginine | inhibited | inhibited | decrease | inhibited | inhibited | could not detect any | could not detect any |  |  | could not detect any | could not detect any | could not detect any | CpG-ODN 1668-induced production of IL-6 by murine BM-DC (CD11c+ sorted BM-DC [2]; [9]): inhibited; also recorded: abrogates; CpG-ODN 1668-induced production of TNF-α by murine BM-DC (CD11c+ sorted BM-DC [2]; [9]): inhibited; also recorded: abrogates; production of IL-6 by murine BM-DC (CD11c+ sorted BM-DC [2]): could not detect any; also recorded: neither TNF-α nor IL-6 were detectable; production of TNF-α by murine BM-DC (CD11c+ sorted BM-DC [2]): could not detect any; also recorded: neither TNF-α nor IL-6 were detectable; LPS-induced production of IL-6 by murine BM-DC [3, 10]: inhibited; LPS-induced production of TNF-a by murine BM-DC [3, 10]: inhibited; LPS-induced production of pro-inflammatory cytokines by murine bone-marrow-derived dendritic cells ([3]; in vitro, mode of incubation not specified): decrease; LPS-induced production of IL-6 by murine BM-DC [3, 11]: inhibited; LPS-induced production of TNF-a by murine BM-DC [3, 11]: inhibited; production of IL-6 by murine BM-DC [3, 12]: could not detect any; production of TNF-a by murine BM-DC [3, 12]: could not detect any; poly I:C-induced IL-6 production by human DC [4, 13]: inhibited; poly I:C-induced TNF-α production by human DC [4, 13]: inhibited; poly I:C-induced production of pro-inflammatory cytokines by human DC [4]: abrogates; also recorded: inhibits; poly I:C-induced production of pro-inflammatory cytokines by human DC ([4]; listed as pR): can be inhibited; CpG-ODN-induced systemic production of IL-6 (TNF-α and IL-6; [14]): inhibited; also recorded: prevents; also recorded: totally abolished; CpG-ODN-induced systemic production of TNF-α (TNF-α and IL-6; [14]): inhibited; also recorded: prevents; also recorded: totally abolished; BCG/CpG-ODN-induced systemic production of IL-6 (TNF-a and IL-6; [15]): inhibited; also recorded: prevents; BCG/CpG-ODN-induced systemic production of TNF-a (TNF-a and IL-6; [15]): inhibited; also recorded: prevents
5 | CC[C@H](C)[C@H](NC(=O)[C@@H](NC(=O)[C@@H](N)CO)[C@@H](C)CC)C(=O)N[C@@H](CC(N)=O)C(=O)N[C@@H](Cc1ccccc1)C(=O)N[C@@H](CCC(=O)O)C(=O)N[C@@H](CCCCN)C(=O)N[C@@H](CC(C)C)C(=O)O [OVA257-264, reference compound] |  |  |  |  |  |  |  |  |  |  |  |  | production of IL-6 in serum after injection (TNF-α and IL-6): does not-induce the production of detectable amounts; production of TNF-α in serum after injection (TNF-α and IL-6): does not-induce the production of detectable amounts; production of IL-6 in serum after injection (TNF-α and IL-6; listed as OVA257-264-peptide): neither the injection of OVA257-264-peptide alone nor in combination with poly-L-arginine led to the induction of significant amounts; production of TNF-α in serum after injection (TNF-α and IL-6; listed as OVA257-264-peptide): neither the injection of OVA257-264-peptide alone nor in combination with poly-L-arginine led to the induction of significant amounts
6 | Polyinosinic-polycytidylic acid [poly I:C, reference compound] |  |  |  |  |  |  |  |  |  | triggers the production | triggers the production | produced IL-12/p70 | 
